# Patent publication US11590117B2, “Treatment of a hematologic malignancy with 2-(4-chlorophenyl)-n-((2-(2,6-dioxopiperidin-3-yl)-1-oxoisoindolin-5-yl)methyl)-2,2-difluoroacetamide” (priority 2016, dated 2023)
# Where two headings read alike, the source gives them in different places.
# Key:
# Assay in all cases: IncuCyte Kinetic Caspase-3/7 Apoptosis Assay
# Format in all cases: cell-based
# Settings in all cases: Homo sapiens, read-out: Compound 1-induced Apoptosis EC50
# AML-193 = system: AML-193
# Text: (§1) Methods. Acute Myeloid Leukemia Cell Line Panel: Human AML cell lines, AML-193, F36-P, GDM-1, HL-60, HNT-34, Kasumi-1, Kasumi-3, KG-1, KG-1a, ML-2, MOLM-13, MUTZ-8, MV-4-11, NOMO-1, OCI-AML2, OCI-AML3, SIG-M5, TF-1, THP-1, and UT-7 were obtained from American Type Culture Collection (ATCC; Manassas, Va.) and Deutsche Sammlung von Mikroorganismen und Zellkulturen (DSMZ) (Germany) cell banks. The AML panel includes cell line(s) from each FAB classification (M0-M7) (Table 7).
# (§2) Cell Culture Conditions: Cell lines were maintained in growth media containing 20% fetal bovine serum (FBS) (Hyclone Cat no. SH30910.03, Lot no. AZF188864; Corning REFno. 35-010-CV, Lot no. 35010124) supplemented with or without 10 ng/mL human recombinant granulocyte-macrophage colony stimulating factor (Sigma-Aldrich Cat no. SRP3050) (Table 8). Medium was purchased from ATCC (Cat no. 30-2001, 30-2002, 30-2003, 30-2005) and Gibco (REF no. 12561-056). Human recombinant granulocyte macrophage colony stimulating factor (GM-CSF) was expressed in Escherichia coli. The cell doubling times for each cell line were provided by ATCC and DSMZ. Cells were maintained in humidified incubators at 5% carbon dioxide (CO2). All cell lines were acclimated to Eagle's minimal essential medium (EMEM)+20% FBS with or without GM-CSF over 2 to 4 weeks prior to live cell imaging using IncuCyte Zoom (Essen Biosciences). The use of EMEM was necessary to eliminate background fluorescence caused by riboflavin in most media.
# (§3) Incubation of Cell Cultures with Compound 1: Compound 1 was provided for studies by Celgene chemistry group at a stock concentration of 30 mM in 20 μL dimethyl sulfoxide (DMSO) frozen. Costar 96-well cell culture plates (Corning Cat no. 3595) were coated with 100 μL of 10 µg/mL fibronectin (Sigma-Aldrich Cat no. F1141) for 4 hours at 37° C. and immediately used or refrigerated overnight for later use. Cells (3000 to 6000 cells) were plated in growth medi in fibronectin-coated 96-well plates and incubated for a minimum of a few hours to overnight. Cells were incubated with a 12-point concentration response in triplicate with Compound 1 ([…]) including DMSO and Media controls. A 3-fold serial dilution of Compound 1 starting from a concentration of 200 μM in 0.6% DMSO (diluted in Media) was performed. For most sensitive cell lines, a 3-fold serial dilution of Compound 1 starting from a concentration of 20 μM in 0.6% DMSO (diluted in media) was performed. A volume of 5 μL or 10 μL for each dilution was added to 100 μL or 200 μL cells, respectively (0.3% DMSO final) and incubated for live cell imaging.
# (§4) Live Cell Imaging on IncuCyte Zoom: Following incubation of cells with Compound 1, diluted Caspase 3/7 reagent (Essen Biosciences Cat no. 4440) is added to each well. The Caspase-3/7 reagent couples the activated caspase-3/7 recognition motif (DEVD) to NucView™488, a DNA intercalating dye. The cleavage of substrate by activated caspase-3/7 results in the release of the DNA dye and green fluorescent staining of nuclear DNA. This allows imaging of cells undergoing caspase-3/7 mediated apoptosis over time. Caspase-3/7 activation was quantified using the IncuCyte™ ZOOM basic analyzer. Red-labeled cell lines were also imaged over time using the IncuCyte™ ZOOM basic analyzer, for determination of both cell doubling time and Compound 1 effect on cell viability. Experiments were performed at least two times in each cell line.
# (§5) Next, a 4 parameter log-logistic model was used to determine relative EC50 at each time point by the ‘drm’ function from the R ‘drc’ package (Ritz C, Streibig J C. Bioassay Analysis using R. J. Statist. Software 2005; 12(5):1-22). Goodness of fit was measured by R squared (coefficient of determination or the amount of variation explained by the model fit) of ≥80%, and EC50 parameter was assessed by having a ratio of standard error to the parameter of ≤40%, and the presence of at least one concentration point above and below the reported EC50. […]
# F36-P = system: F36-P
# Text: as §1, §2, §3, §4, §5
# GDM-1 = system: GDM-1
# Text: as §1, §2, §3, §4, §5
# Kasumi-1 = system: Kasumi-1
# Text: as §1, §2, §3, §4, §5
# ML-2 = system: ML-2
# Text: as §1, §2, §3, §4, §5
# MOLM-13 = system: MOLM-13
# Text: as §1, §2, §3, §4, §5
# MV-4-11 = system: MV-4-11
# Text: as §1, §2, §3, §4, §5
# TF-1 = system: TF-1
# Text: as §1, §2, §3, §4, §5
smiles,measurement,setting,value
"O=C1CCC(N2Cc3cc(CNC(=O)C(F)(F)c4ccc(Cl)cc4)ccc3C2=O)C(=O)N1 (centres unmarked) [Compound 1, 2-(4-chlorophenyl)-N-((2-(2,6-dioxopiperidin-3-yl)-1-oxoisoindolin-5-yl)methyl)-2,2-difluoroacetamide]",EC50,AML-193; 24 hr,0.254 µM
same,EC50,AML-193; 48 hr,0.089 µM
same,EC50,AML-193; 72 hr,0.047 µM
same,EC50,AML-193; 96 hr,0.06 µM
same,EC50,F36-P; 48 hr,0.335 µM
same,EC50,F36-P; 72 hr,0.252 µM
same,EC50,F36-P; 96 hr,0.229 µM
same,EC50,GDM-1; 12 hr,0.11 µM
same,EC50,GDM-1; 24 hr,0.313 µM
same,EC50,GDM-1; 48 hr,0.049 µM
same,EC50,GDM-1; 72 hr,0.033 µM
same,EC50,GDM-1; 96 hr,0.025 µM
same,EC50,Kasumi-1; 48 hr,0.124 µM
same,EC50,Kasumi-1; 72 hr,0.254 µM
same,EC50,Kasumi-1; 96 hr,0.055 µM
same,EC50,ML-2; 12 hr,0.179 µM
same,EC50,ML-2; 24 hr,0.062 µM
same,EC50,ML-2; 48 hr,0.031 µM
same,EC50,ML-2; 72 hr,0.021 µM
same,EC50,ML-2; 96 hr,0.025 µM
same,EC50,MOLM-13; 24 hr,0.916 µM
same,EC50,MOLM-13; 48 hr,0.368 µM
same,EC50,MOLM-13; 72 hr,0.156 µM
same,EC50,MOLM-13; 96 hr,0.079 µM
same,EC50,"MV-4-11; MV4-11, 12 hr",0.227 µM
same,EC50,"MV-4-11; MV4-11, 24 hr",0.167 µM
same,EC50,"MV-4-11; MV4-11, 48 hr",0.032 µM
same,EC50,"MV-4-11; MV4-11, 72 hr",0.016 µM
same,EC50,"MV-4-11; MV4-11, 96 hr",0.017 µM
same,EC50,TF-1; 48 hr,0.129 µM
same,EC50,TF-1; 72 hr,0.065 µM
same,EC50,TF-1; 96 hr,0.064 µM
